Laboratory results from patent US5324502A, “Radiopharmaceuticals for imaging the heart” (priority 1992, dated 1994).
Where two headings read alike, the source gives them in different places.

Experiments:
[1] = rat, in vivo, iv
Protocol: The gallium-67 complexes are prepared by ligand exchange from gallium-67 chloride, employing the tris(acetylacetonato)gallium(III) complex as an intermediate. The Ga-67 acetylacetonate in ethanol is reacted with the chelating ligand or ligand precursor at elevated temperature to form rapidly the desired gallium radiopharmaceutical. […] The biodistribution of several radiopharmaceuticals was determined in rats following intravenous injection using techniques previously described (M. A. Green, Nuclear Medicine and Biology 14:59-61, 1987; E. John and M. A. Green, J. Medicinal Chemistry, 33:1764-1770, 1990).
Under ether anesthesia, 1 to 3 μCi (0.1-0.2 mL) of no-carrier-added Ga-67 compound was administered by bolus injection into the femoral vein of male Sprague-Dawley rats. The ether anesthetized rats were sacrificed by decapitation at given time intervals post-injection, organs of interest were removed, weighed, and the gallium-67 activity counted. The biodistribution was calculated as a percentage of the injected dose per gram of tissue and percentage of injected dose per organ for each sample.

[2] = Octanol/water partition coefficient of radiolabeled gallium complexes; type: physicochemical; conditions: octanol/tris buffer, pH 7
Protocol: Octanol/water partition coefficients were measured by vortex mixing 1 mL of 1-octanol and 1 mL of isotonic Tris buffer (pH 7.0) with a 1-5 μL sample of the radiolabeled gallium complex. Following centrifugation at >1200 g for 5 minutes, the octanol and aqueous phases were sampled and counted in an automatic well counter.

COc1ccc([O-])c(C=NCCCNCCNCCCN=Cc2cc(OC)ccc2[O-])c1.[67Ga+3] [(5-MeOSal)2 BAPEN, ^67 GaL^+ L = [bis(5-methoxysalicylaldimino)-N,N'-bis(3-aminopropyl)ethylenediamine]]
% Injected Dose per Gram Tissue, Brain [1]: 0.00 ± 0.00
% injected dose in heart, 1 min [1]: 0.34 ± 0.03 % injected dose
% injected dose in heart, 2 h [1]: 0.23 ± 0.03 % injected dose
% Injected Dose per Gram Tissue, Blood ([1]; 1 min): 0.52 ± 0.08
% Injected Dose per Gram Tissue, Brain ([1]; 1 min): 0.02 ± 0.01
% Injected Dose per Gram Tissue, Heart ([1]; 1 min): 0.46 ± 0.03
% Injected Dose per Gram Tissue, Kidney (one) ([1]; 1 min): 9.31 ± 0.32
% Injected Dose per Gram Tissue, Liver ([1]; 1 min): 3.01 ± 0.51
% Injected Dose per Gram Tissue, Lungs ([1]; 1 min): 0.55 ± 0.14
% Injected Dose per Gram Tissue, Spleen ([1]; 1 min): 0.25 ± 0.02
Heart/Blood ([1]; 1 min): 0.89 ± 0.12
% Injected Dose per Gram Tissue, Blood ([1]; 2 h): 0.08 ± 0.01
% Injected Dose per Gram Tissue, Heart ([1]; 2 h): 0.33 ± 0.03
% Injected Dose per Gram Tissue, Kidney (one) ([1]; 2 h): 1.57 ± 0.13
% Injected Dose per Gram Tissue, Liver ([1]; 2 h): 0.78 ± 0.01
% Injected Dose per Gram Tissue, Lungs ([1]; 2 h): 0.16 ± 0.02
% Injected Dose per Gram Tissue, Spleen ([1]; 2 h): 0.07 ± 0.01
Heart/Blood ([1]; 2 h): 4.33 ± 0.28
% Injected Dose per Gram Tissue, Blood ([1]; […]): 0.15 ± 0.04
% Injected Dose per Gram Tissue, Heart ([1]; […]): 0.36 ± 0.01
% Injected Dose per Gram Tissue, Kidney (one) ([1]; […]): 4.65 ± 1.29
% Injected Dose per Gram Tissue, Liver ([1]; […]): 2.09 ± 0.78
% Injected Dose per Gram Tissue, Lungs ([1]; […]): 0.22 ± 0.22
% Injected Dose per Gram Tissue, Spleen ([1]; […]): 0.09 ± 0.01
Heart/Blood ([1]; […]): 2.61 ± 0.55
log P [2]: 0.53
